According to US11717531B2, “Preeclampsia” (ASTON UNIVERSITY, priority 2015, dated 2023):

How the values were obtained:
preeclampsia = settings: low-dose, started before 16 weeks' gestation, high-risk women; cited from earlier work
miR-122 = experiment: qPCR of miR-122 expression in treated HUVEC; type: cell-based, human; settings: 24 hours
Procedure: (§1) FIG. 2. MiR-122 and miR-374b are regulated by various agents that regulate sFlt-1 release. HUVEC cells were treated with 10 uM Hemin (A), 2 uM or 20 uM Pravastatin (B) 20 ng/ml VEGF-A (C) or 20 ng/ml VEGF-E (D) for 24 hours. Total RNA of the treated cells was isolated and the expression of miR-122 and miR-374b was measured by quantitative PCR. The relative miR-122 and miR-374b expression was normalized to RNU6.
(§2) FIG. 3. Hmox1 regulates miR-122 and miR-374b expression. HUVEC cells were infected by adenovirus overexpressiong Hmox1 (A) or transfected with siRNA against Hmox1 (B) for 24 hours and the relative expression of miR-122 and miR-374b was measured by qPCR.
(§3) Human umbilical vein endothelial cells (HUVECs) were isolated and cultured in M199 medium as described previously (Bussolati et al, 2001). Experiments were performed on third or fourth passage HUVEC.
(§4) Sample preparation and real-time quantitative PCR was performed as described previously (Cudmore et al., 2007).

miR-374b = experiment: qPCR of miR-374b expression in treated HUVEC; type: cell-based, human; settings: 24 hours
Procedure: as §1, §2, §3, §4

miR-152 = experiment: qPCR of miR-152 expression in HUVEC; type: cell-based, human; settings: growth factor 20 ng/ml, 24 hours
Procedure: FIG. 9 Hypoxia, inflammatory cytokine or angiogenic growth factor stimulation increases microRNA-152 expression in endothelial cells and placental explants. Human placental explants was treated with (A) inflammatory cytokine mix (TNF-α, 20 ng/ml, IFN-γ, 20 ng/ml and IL-1β, 2 ng/ml), (B) hypoxia (1% 02) condition or (C) combination of cytokine mix and hypoxia condition and assayed for miR-152 expression using qPCR. Similarly, HUEVC cells were treated with (D) hypoxia (1% 02) condition, VEGF-E (20 ng/ml, E) or FGF-2 (20 ng/ml, F) for 24 hours and used for qPCR analysis of miR-152 expression. Moreover, overexpression of miR-152 inhibited PlGF release, but not the sFlt-1 and sEng in endothelial cells. HUVECs were electroporated with mimic-152 or control mimic-con. After resting for 24 hours, the transfected cells were treated with vehicle or VEGF-E (20 ng/ml) in the conditioned media. […] Data is shown as mean+SEM and analyzed by Student t-test.
Human umbilical vein endothelial cells (HUVECs) were isolated and cultured in M199 medium as described previously (Bussolati et al, 2001). […] Briefly, human placental villus explants were incubated under stimulation of test substances or hypoxia condition and collected for quantitative PCR of miR-152. […]
as §4

miR-144 = experiment: qPCR of miR-144 expression in treated HUVEC; type: cell-based, human; settings: hemin 10 uM
Procedure: as §3, §4

sFlt-1 = sFlt-1 release from HUVEC, ELISA of conditioned media; type: cell-based, human; settings: 24 hours
Procedure: as §3
Chemically synthesized double-stranded microRNA mimic and single-stranded inhibitor against miR-122 (mi-122 and anti-122) and miR-374b (mi-374b and anti-374b) were purchased from Qiagen and the efficiency was tested by Qpcr (FIG. 6A, B). HUVECs were trypsinized, and 1×10^6 cells were electroporated with ≈0.6 ug mimic-122 or mimic-374b, =3 ug anti-122 or anti-374 or control molecules using electroporation (Amaxa GmbH, Cologne, Germany) as described previously (Cudmore et al., 2007).
Enzyme-linked immunosorbent assay (ELISA) kits for human sFlt-1 was obtained from R&D Systems and performed according to the manufacturer's specifications.
Enzyme-linked immunosorbent assay (ELISA) kits for human sFlt-1, sEng and P1GF were obtained from R&D Systems and performed according to the manufacturer's specifications.

CC(=O)Oc1ccccc1C(=O)O [aspirin]
prevention of PE, severe PE and IUGR (preeclampsia): up to 50%

CC[C@H](C)C(=O)O[C@H]1C[C@H](O)C=C2C=C[C@H](C)[C@H](CC[C@@H](O)C[C@@H](O)CC(=O)O)[C@H]21 [pravastatin]
induction of miR-122 expression (miR-122; pravastatin 2 uM and 20 uM): 3-9 fold | induction of miR-374b expression (miR-374b; pravastatin 2 uM and 20 uM): 2.7 fold

FGF-2: angiogenic growth factor used at 20 ng/ml
elevation of miR-152 expression (miR-152): ~65%

hemin
effect on miR-144 expression (miR-144): no significant effect | recovery of hemin-reduced sFlt-1 release by VEGF-E stimulation (sFlt-1; hemin 10 uM plus VEGF-E): cannot be recovered | sFlt-1 release in endothelial cells (sFlt-1; hemin 10 uM): decreased | increase of miR-122 expression (miR-122; hemin 10 uM): 20 fold | increase of miR-374b expression (miR-374b; hemin 10 uM): 2.7 fold

vascular endothelial growth factor A [VEGF-A]
decrease of miR-122 expression (miR-122; growth factor 20 ng/ml): 47% | reduction of miR-374b expression (miR-374b; growth factor 20 ng/ml): 20%
